According to the METLIN SMRT retention time set (Domingo-Almenara et al. 2019):

test: gradient 5% acetonitrile 3 min, to 50% in 2 min, to 85% in 15 min, held 3 min, 100 µL/min; conditions: column: Zorbax Extend-C18 2.1 x 50 mm; eluents: water / acetonitrile, 0.1% formic acid
Outline: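 Each retention time is based on an adduct peak selected computationally and verified by manual inspection. Measurements used HPLC–quadrupole time-of-flight mass spectrometry in positive and negative ionization mode on mixtures of ~100 pure standards. Chromatography ran on a Zorbax Extend-C18 column (2.1 × 50 mm, 1.8 μm) at 100 μL/min with water and acetonitrile, each containing 0.1% formic acid, and dead and dwell volumes of 40 μL and 900 μL.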

Going from COc1ccc(N2CCN(c3cc(SCC(=O)Nc4ccccc4F)ncn3)CC2)cc1 to O=C(C1CCN(c2ncnc3c2oc2ccccc23)CC1)N1CCN(c2ccccc2)CC1, the RP-LC retention time falls from 1030 s to 795 s.

Compared with CCN1CCn2cc(S(=O)(=O)Nc3ccc(OC)cc3C)cc2C1=O, CCN1CCCn2cc(S(=O)(=O)N3CCN(c4ccccc4)CC3)cc2C1=O is higher in RP-LC retention time: 716 s for the first, 813 s for the second.

Compared with O=C(c1ccco1)N1CCCC1c1nc(-c2ccccc2)no1 (centres undefined), COc1ccc(-c2noc(C3CCCN3C(=O)c3sccc3C)n2)cc1 (centres undefined) is higher in RP-LC retention time: 853 s for the first, 984 s for the second.

First: CC(C)CN(C1CCOCC1)C1CN(C(=O)c2cnccn2)C1
Second: O=S(=O)(c1cccnc1)N1CC(c2nc(CCOCC3CCOCC3)no2)C1
The RP-LC retention time of the first is lower: 556 s for the first, 710 s for the second.

Going from CCC(C)CC(=O)N1CCCN(C2=NS(=O)(=O)C(c3ccc(Cl)cc3)=C2C)CC1 (centres undefined) to O=C(Cc1cccc(Cl)c1)N1CCN(c2nc(CN3CCOCC3)cs2)CC1, the RP-LC retention time falls from 944 s to 644 s.

First: Cc1ccc2nc(C(=O)NCCN(C)C3CCCCC3)cn2c1
Second: O=C(CC1CCN(C(=O)C2CCCCC2)CC1)NCCc1c[nH]c2ccc(Cl)cc12
The RP-LC retention time of the first is lower: 564 s for the first, 871 s for the second.

Compared with Cc1cccc(N2C(=O)CN(CCc3cccs3)[C@H]3CS(=O)(=O)C[C@H]32)c1, Cc1ccc(-c2cc3n(n2)C(NCCc2cccs2)CNC3=O)cc1 (centres undefined) is lower in RP-LC retention time: 814 s for the first, 739 s for the second.

Going from CCNC(=O)N1CC(Oc2cccc(-c3nc(-c4ccccc4)no3)c2)C1 to CCc1nn2c(CNC(=O)c3cc(C)cc(C)c3)c(-c3ccccc3)nc2s1, the RP-LC retention time rises from 939 s to 1030 s.

Compared with CCSc1nnc(NC(=O)C2CCN(S(=O)(=O)c3ccc4c(c3)sc(=O)n4C)CC2)s1, CC1CCN(CC2CCN(S(=O)(=O)c3cccc(Cl)c3)CC2)CC1 is lower in RP-LC retention time: 862 s for the first, 691 s for the second.

Going from Cc1c(C(=O)N2CCCC2)cnn1-c1cc(-c2nc(C(C)(C)C)no2)ccn1 to O=C(Nc1cc(-c2ccsc2)no1)C1CCCC1, the RP-LC retention time falls from 1030 s to 918 s.

First: O=C(Nc1ccccc1C(F)(F)F)c1cnc(-c2ccccc2)nc1-c1ccncc1
Second: O=C(CNC(=O)Cc1ccccc1)NCc1[nH]nc2ccccc12
The RP-LC retention time of the first is higher: 915 s for the first, 648 s for the second.

Going from CCOc1cccc(-c2noc(Cn3ncn4nc(-c5cccs5)cc4c3=O)n2)c1 to CCn1cnc2ccc(-c3noc(CCc4c[nH]c5ccccc45)n3)cc21, the RP-LC retention time falls from 1140 s to 735 s.

First: Cc1nc2cc(-c3noc(Cc4ccc(Cl)cc4)n3)ccc2o1
Second: COc1ccc(-c2nnc(-c3ccccc3)o2)cc1S(=O)(=O)NC(C)C
The RP-LC retention time of the first is higher: 1070 s for the first, 870 s for the second.

First: COC(=O)c1cccc(NC(=O)c2csc(-c3cn(C)c4ncccc34)n2)c1
Second: CCn1cc(S(=O)(=O)NCc2ccccc2F)c2cccnc21
The RP-LC retention time of the first is higher: 984 s for the first, 799 s for the second.

Compared with CSc1cccc2sc(Nc3nc(C)c(C(C)=O)s3)nc12, Cc1sc(NC(=O)CC(C)C)nc1-c1ccc2c(c1)N(C)C(=O)CO2 is higher in RP-LC retention time: 842 s for the first, 910 s for the second.

Compared with CCn1c(N2CCCC(C(=O)NCCOC)C2)cc(=O)n(C)c1=O (centres undefined), CC(=O)N1CCc2cc(N3CC(C(=O)NCc4ccco4)CC3=O)ccc21 (centres undefined) is lower in RP-LC retention time: 646 s for the first, 640 s for the second.

Compared with COc1ccc(Br)cc1S(=O)(=O)NCCCn1ccnc1, O=C(COc1ccc(Cl)cc1Cl)N(Cc1ccccn1)Cc1ccco1 is higher in RP-LC retention time: 568 s for the first, 830 s for the second.

Compared with O=C(Nc1cccn2cnnc12)c1cnccn1, CC(C)Cn1nc(CNC(=O)c2ccco2)c2ccccc21 is higher in RP-LC retention time: 590 s for the first, 852 s for the second.

Going from COc1cc(C(=O)N2CCC(CC(=O)N3CCOCC3)CC2)cc(OC)c1OC to O=C(COc1ccc(F)cc1)N1CCN(Cc2noc3ccccc23)CC1, the RP-LC retention time rises from 618 s to 726 s.

Compared with O=C1C2C=CC=CC2=NC(=S)N1CCN1CCC(=C(c2ccc(F)cc2)c2ccc(F)cc2)CC1 (centres undefined), C[C@@H](Oc1cc(-n2cnc3ccc(CN4CCN(C)CC4)cc32)sc1C(N)=O)c1ccccc1C(F)(F)F is lower in RP-LC retention time: 1000 s for the first, 690 s for the second.

Going from Cc1noc(C2(NC(=O)c3ccc(C(F)(F)F)cc3)CCCCC2)n1 to O=C(Nc1ccc(-n2cnc(C(=O)N3CCc4ccccc4C3)c2)nc1)C1CC1, the RP-LC retention time rises from 711 s to 733 s.

Going from CCc1nc2nc3c(c(N4CCN(c5ccccn5)CC4)n2n1)CCC3 to O=C(c1ccccc1F)N1CCC2(C1)C(=O)Nc1ccccc12 (centres undefined), the RP-LC retention time rises from 581 s to 662 s.
